Paper PMC12029982, “The Mechanism of a Novel Mitochondrial-Targeted Icaritin Derivative in Regulating Apoptosis of BEL-7402 Cells Based on the SIRT3 and CypD-Mediated ROS/p38 MAPK Signaling Pathway” (Molecules, 2025)

Experiments:
[1] = test system: A549; assay: MTT assay, antiproliferative activity; assay type: cell-based; details: Homo sapiens, 48 h drug exposure, mean ± SD
Procedure: (§1) Human cancer cell lines BEL-7402, A549, MCF-7, PC-3M, and normal renal cell line HEK293 were bought from the BeNa Culture Collection (Beijing, China). BEL7402, A549, and PC-3M were cultured in RPMI 1640 medium (Gibco, Carlsbad, CA, USA). MCF-7 and HEK293 were cultured in the DMEM medium (Gibco, CA, USA). The medium was supplemented with 10% fetal bovine serum (FBS) (CLARK, San Diego, CA, USA), 100 U/mL penicillin, and 0.1 mg/mL streptomycin (Beyotime, Nanjing, China). The cells were incubated in 5% CO2 at 37 °C.
(§2) The MTT assay was employed to assess the inhibitory effect of each compound on cell growth. A549, PC-3M, MCF-7, BEL-7402, and HEK293 cells in the logarithmic growth phase were seeded in 96-well culture plates at an inoculum density of 5 × 10^4 cells/mL. After overnight incubation at 37 °C in a 5% CO2 atmosphere, the cells fully adhered to the surface. Different concentrations of sample solutions (0, 3.125, 6.25, 12.5, 25, 50, 100 μmol/L) were added (100 μL) to treat the cells. After 48 h of drug treatment, 10 μL of a 5 mg/mL MTT solution was added to each well and incubated for 4 h at 37 °C. The supernatant was then discarded, and 150 μL of DMSO was added to dissolve the formazan. The mixture was shaken at room temperature for 15 min, and the absorbance (D) value was measured at 490 nm using a Microplate Reader (HBS-ScanY, Nanjing, China). The drug IC50 values were calculated using GraphPad Prism (v10.0). Each cell viability experiment was performed in triplicate.

[2] = test system: BEL-7402; assay: MTT assay, antiproliferative activity; assay type: cell-based; details: Homo sapiens, 48 h drug exposure, mean ± SD
Procedure: as §1, §2

[3] = test system: MCF-7; assay: MTT assay, antiproliferative activity; assay type: cell-based; details: Homo sapiens, MCF7, 48 h drug exposure, mean ± SD
Procedure: as §1, §2

[4] = test system: PC-3M; assay: MTT assay, antiproliferative activity; assay type: cell-based; details: Homo sapiens, 48 h drug exposure, mean ± SD
Procedure: as §1, §2

[5] = test system: HEK293; assay: MTT assay, cytotoxicity to normal cell line; assay type: cell-based, human; details: Homo sapiens, HEK293; MTT, 48 h drug exposure, mean ± SD; normal cell line
Procedure: as §1, §2

| Structure (SMILES) | IC50 [1] [µM] | IC50 [2] [µM] | IC50 [3] [µM] | IC50 [4] [µM] | IC50 [5] [µM] |
| --- | --- | --- | --- | --- | --- |
| COc1ccc(-c2oc3c(CC=C(C)C)c(OC(=O)CCCCBr)cc(O)c3c(=O)c2O)cc1 [Compound 1] | 35.8 ± 3.57 | 47.8 ± 2.65 | 25.8 ± 1.07 | 44.5 ± 2.15 | 46.8 ± 1.82 |
| COc1ccc(-c2oc3c(CC=C(C)C)c(OC(=O)CCCCCCBr)cc(O)c3c(=O)c2O)cc1 [Compound 2] | > 100 | 40.6 ± 5.5 | 42.1 ± 5.47 | 76.1 ± 4.44 | > 100 |
| COc1ccc(-c2oc3c(CC=C(C)C)c(OC(=O)CCCCCCCCBr)cc(O)c3c(=O)c2O)cc1 [Compound 3] | > 100 | > 100 | > 100 | > 100 | > 100 |
| COc1ccc(-c2oc3c(CC=C(C)C)c(OC(=O)CCCCCCCCCCBr)cc(O)c3c(=O)c2O)cc1 [Compound 4] | > 100 | > 100 | > 100 | 76 ± 4.69 | > 100 |
| O=c1[nH]cc(F)c(=O)[nH]1 [Compound 5-FU, 5-fluorouracil, reference compound] | 86.2 ± 7.94 | 39 ± 1.32 | 13.5 ± 2.78 | 58.7 ± 2.64 | > 100 |
| CCCCC(=O)Oc1cc(O)c2c(=O)c(O)c(-c3ccc(OC)cc3)oc2c1CC=C(C)C [Compound 5] | 97.8 ± 6.4 | 39.9 ± 2.06 | 48.9 ± 1.42 | 60.2 ± 3.88 | 77.2 ± 5.13 |
| CCCCCCC(=O)Oc1cc(O)c2c(=O)c(O)c(-c3ccc(OC)cc3)oc2c1CC=C(C)C [Compound 6] | > 100 | 40.6 ± 5.17 | 45.6 ± 3.02 | > 100 | > 100 |
| CCCCCCCCC(=O)Oc1cc(O)c2c(=O)c(O)c(-c3ccc(OC)cc3)oc2c1CC=C(C)C [Compound 7] | > 100 | 74.6 ± 4.83 | > 100 | > 100 | > 100 |
| CCCCCCCCCCC(=O)Oc1cc(O)c2c(=O)c(O)c(-c3ccc(OC)cc3)oc2c1CC=C(C)C [Compound 8] | > 100 | > 100 | > 100 | > 100 | > 100 |
| COc1cccc2c1C(=O)c1c(O)c3c(c(O)c1C2=O)C[C@@](O)(C(=O)CO)C[C@@H]3O[C@H]1C[C@H](N)[C@H](O)[C@H](C)O1 [DOX, doxorubicin, reference compound] | 6.88 ± 0.62 | 3.23 ± 0.64 | 2.44 ± 0.81 | 0.24 ± 0.11 | > 100 |
| COc1ccc(-c2oc3c(CC=C(C)C)c(O)cc(O)c3c(=O)c2O)cc1 [ICT, Icaritin] | 43.1 ± 1.93 | 21.8 ± 2.42 | 25.7 ± 1.89 | 63.6 ± 2.67 | 43.2 ± 3.05 |
| COc1ccc(-c2oc3c(CC=C(C)C)c(OC(=O)CCCC[P+](c4ccccc4)(c4ccccc4)c4ccccc4)cc(O)c3c(=O)c2O)cc1 [Mito-ICT-1] | 21.1 ± 2.67 | 2.85 ± 0.7 | 10.7 ± 0.35 | 33.6 ± 2.53 | 47 ± 2.91 |
| COc1ccc(-c2oc3c(CC=C(C)C)c(OC(=O)CCCCCC[P+](c4ccccc4)(c4ccccc4)c4ccccc4)cc(O)c3c(=O)c2O)cc1 [Mito-ICT-2] | 10.7 ± 1.09 | 3.43 ± 0.91 | 23.7 ± 2.24 | 27.8 ± 1.74 | 53.7 ± 5.15 |
| COc1ccc(-c2oc3c(CC=C(C)C)c(OC(=O)CCCCCCCC[P+](c4ccccc4)(c4ccccc4)c4ccccc4)cc(O)c3c(=O)c2O)cc1 [Mito-ICT-3] | 13.7 ± 0.92 | 3.85 ± 0.69 | 22.5 ± 1.78 | 20.6 ± 2.06 | 55 ± 3.92 |
